Source: patent US10660333B2, “Substituted 2-heterocyclylimidazolylcarboxamides as pesticides” (BAYER CROPSCIENCE AKTIENGESELLSCHAFT, priority 2016, dated 2020)
Where two headings read alike, the source gives them in different places.

Experiments:
[1] = log P by HPLC on reversed-phase (C18) columns, OECD Guideline 117; type: physicochemical
Myzus persicae [2] = experiment: Myzus persicae - spray test; type: in vivo; settings: for pest or weed control at 500 g/ha: Myzus persicae, foliar, 120 h, read-out: efficacy (aphids killed)
Method: Myzus persicae—Spray Test
To produce a suitable active ingredient formulation, 1 part by weight of active ingredient is dissolved with the specified parts by weight of solvent and made up to the desired concentration with water containing an emulsifier concentration of 1000 ppm. To produce further test concentrations, the formulation is diluted with emulsifier-containing water.
Discs of Chinese cabbage leaves (Brassica pekinensis) infested by all stages of the green peach aphid (Myzus persicae) are sprayed with an active ingredient formulation of the desired concentration.
(§1) After 5 days, the efficacy in % is determined. 100% means that all the aphids have been killed; 0% means that no aphids have been killed.

Myzus persicae [3] = experiment: Myzus persicae - oral test; type: in vivo; settings: for pest or weed control at 4 ppm: Myzus persicae, 120 h, read-out: efficacy (aphids killed)
Method: To produce a suitable active ingredient formulation, 1 part by weight of active ingredient is dissolved with the specified parts by weight of solvent and made up to the desired concentration with water.
50 μl of the active ingredient formulation are transferred into microtitre plates and made up to a final volume of 200 μl with 150 μl of IPL41 insect medium (33%+15% sugar). Subsequently, the plates are sealed with parafilm, which a mixed population of green peach aphids (Myzus persicae) within a second microtitre plate is able to puncture and imbibe the solution.
as §1

[4] = reversed-phase (C18) HPLC column, HPLC RP C18, acidic range pH 2.7, 0.1% formic acid/acetonitrile, read-out: logP[a]
[5] = reversed-phase (C18) HPLC column, HPLC RP C18, neutral range pH 7.8, ammonium hydrogencarbonate/acetonitrile, read-out: logP[n]
[6] = 500 g/ha, Chinese cabbage leaf discs, after 5 days
[7] = HPLC RP C18, acidic range pH 2.7, 0.1% formic acid/acetonitrile
[8] = HPLC RP C18, neutral range pH 7.8, ammonium hydrogencarbonate/acetonitrile

CCOC(=O)C1=NOC(c2ncc(C(=O)N(C)c3cccnc3)n2C)C1 (stereo not drawn) [Example I-1-5, Ethyl 5-{1-methyl-5-[methyl(pyridin-3-yl)carbamoyl]-1H-imidazol-2-yl}-4,5-dihydro-1,2-oxazole-3-carboxylate]
chromatographic logP [1, 4]: 1.04 | chromatographic logP [1, 5]: 1.32 | pest or weed control at 500 g/ha (Myzus persicae [2]; [6]): 100% | pest or weed control at 4 ppm (Myzus persicae [3]; 4 ppm, oral, after 5 days): 100%

CN(C)C(=O)C1=NOC(c2ncc(C(=O)N(C)c3cccnc3)n2C)C1 (stereo not drawn) [Example I-1-6]
logP[a] [1, 7]: 0.77 | logP[n] [1, 8]: 0.97 | efficacy (aphids killed) (Myzus persicae [2]; [6]): 100% | efficacy (aphids killed) (Myzus persicae [3]; 4 ppm, oral, after 5 days): 100%

CN(C(=O)c1cnc(C2CC(c3ccccc3Cl)=NO2)n1C)c1cccnc1 (stereo not drawn) [Example I-1-9]
logP[a] [1, 7]: 1.69 | logP[n] [1, 8]: 1.95 | efficacy (aphids killed) (Myzus persicae [2]; [6]): 100% | efficacy (aphids killed) (Myzus persicae [3]; 4 ppm, oral, after 5 days): 100%

CN(C(=O)c1cnc(C2CC(c3cccc(Cl)c3)=NO2)n1C)c1cccnc1 (stereo not drawn) [Example I-1-10]
logP[a] [1, 7]: 1.88 | logP[n] [1, 8]: 2.10 | efficacy (aphids killed) (Myzus persicae [2]; [6]): 100% | efficacy (aphids killed) (Myzus persicae [3]; 4 ppm, oral, after 5 days): 100%

CN(C(=O)c1cnc(C2CC(c3ccc(Cl)cc3)=NO2)n1C)c1cccnc1 (stereo not drawn) [Example I-1-11]
logP[a] [1, 7]: 1.97 | logP[n] [1, 8]: 2.12 | efficacy (aphids killed) (Myzus persicae [2]; [6]): 100% | efficacy (aphids killed) (Myzus persicae [3]; 4 ppm, oral, after 5 days): 100%

CN(C(=O)c1cnc(C2CC(c3cccc(Cl)c3Cl)=NO2)n1C)c1cccnc1 (stereo not drawn) [Example I-1-12]
logP[a] [1, 7]: 2.07 | logP[n] [1, 8]: 2.25 | efficacy (aphids killed) (Myzus persicae [2]; [6]): 100% | efficacy (aphids killed) (Myzus persicae [3]; 4 ppm, oral, after 5 days): 100%

CN(C(=O)c1cnc(C2CC(c3ccc(Cl)cc3Cl)=NO2)n1C)c1cccnc1 (stereo not drawn) [Example I-1-13]
logP[a] [1, 7]: 2.23 | logP[n] [1, 8]: 2.41 | efficacy (aphids killed) (Myzus persicae [2]; [6]): 100% | efficacy (aphids killed) (Myzus persicae [3]; 4 ppm, oral, after 5 days): 100%

CN(C(=O)c1cnc(C2CC(c3cc(Cl)ccc3Cl)=NO2)n1C)c1cccnc1 (stereo not drawn) [Example I-1-14]
logP[a] [1, 7]: 2.13 | logP[n] [1, 8]: 2.32 | efficacy (aphids killed) (Myzus persicae [2]; [6]): 90% | efficacy (aphids killed) (Myzus persicae [3]; 4 ppm, oral, after 5 days): 100%

CN(C(=O)c1cnc(C2CC(c3c(Cl)cccc3Cl)=NO2)n1C)c1cccnc1 (stereo not drawn) [Example I-1-15]
logP[a] [1, 7]: 1.87 | logP[n] [1, 8]: 2.10 | efficacy (aphids killed) (Myzus persicae [2]; [6]): 100% | efficacy (aphids killed) (Myzus persicae [3]; 4 ppm, oral, after 5 days): 100%

CN(C(=O)c1cnc(C2CC(c3ccc(Cl)c(Cl)c3)=NO2)n1C)c1cccnc1 (stereo not drawn) [Example I-1-16]
logP[a] [1, 7]: 2.27 | logP[n] [1, 8]: 2.48 | efficacy (aphids killed) (Myzus persicae [2]; [6]): 100% | efficacy (aphids killed) (Myzus persicae [3]; 4 ppm, oral, after 5 days): 100%

CN(C(=O)c1cnc(C2CC(c3cc(Cl)cc(Cl)c3)=NO2)n1C)c1cccnc1 (stereo not drawn) [Example I-1-17]
logP[a] [1, 7]: 2.39 | logP[n] [1, 8]: 2.61 | efficacy (aphids killed) (Myzus persicae [2]; [6]): 100% | efficacy (aphids killed) (Myzus persicae [3]; 4 ppm, oral, after 5 days): 100%

CN(C(=O)c1cnc(C2CC(c3ccccc3C#N)=NO2)n1C)c1cccnc1 (stereo not drawn) [Example I-1-18]
logP[a] [1, 7]: 1.34 | logP[n] [1, 8]: 1.55 | efficacy (aphids killed) (Myzus persicae [2]; [6]): 90% | efficacy (aphids killed) (Myzus persicae [3]; 4 ppm, oral, after 5 days): 100%

CN(C(=O)c1cnc(C2CC(c3ccc(C#N)cc3)=NO2)n1C)c1cccnc1 (stereo not drawn) [Example I-1-20]
logP[a] [1, 7]: 1.42 | logP[n] [1, 8]: 1.62 | efficacy (aphids killed) (Myzus persicae [2]; [6]): 90% | efficacy (aphids killed) (Myzus persicae [3]; 4 ppm, oral, after 5 days): 100%

Cc1ccc(C2=NOC(c3ncc(C(=O)N(C)c4cccnc4)n3C)C2)cc1 (stereo not drawn) [Example I-1-21]
logP[a] [1, 7]: 1.75 | logP[n] [1, 8]: 1.95 | efficacy (aphids killed) (Myzus persicae [2]; [6]): 100% | efficacy (aphids killed) (Myzus persicae [3]; 4 ppm, oral, after 5 days): 100%

COc1ccc(C2=NOC(c3ncc(C(=O)N(C)c4cccnc4)n3C)C2)cc1 (stereo not drawn) [Example I-1-25]
logP[a] [1, 7]: 1.46 | logP[n] [1, 8]: 1.74 | efficacy (aphids killed) (Myzus persicae [3]; 4 ppm, oral, after 5 days): 100%

CN(C(=O)c1cnc(C2CC(c3cccnc3)=NO2)n1C)c1cccnc1 (stereo not drawn) [Example I-1-27]
logP[a] [1, 7]: 0.64 | logP[n] [1, 8]: 1.09 | efficacy (aphids killed) (Myzus persicae [2]; [6]): 90% | efficacy (aphids killed) (Myzus persicae [3]; 4 ppm, oral, after 5 days): 100%

CC1=NOC(C)(c2ncc(C(=O)N(C)c3cccnc3)n2C)C1 (stereo not drawn) [Example I-1-31]
logP[a] [1, 7]: 0.53 | logP[n] [1, 8]: 0.96 | efficacy (aphids killed) (Myzus persicae [2]; [6]): 90% | efficacy (aphids killed) (Myzus persicae [3]; 4 ppm, oral, after 5 days): 90%

CN(C(=O)c1cnc(C2CC(c3ccc(OC(F)(F)F)cc3)=NO2)n1C)c1cccnc1 (stereo not drawn) [Example I-1-33]
logP[a] [1, 7]: 2.28 | logP[n] [1, 8]: 2.42 | efficacy (aphids killed) (Myzus persicae [2]; [6]): 90%

CN(C(=O)c1cnc(C2CC(c3c(Cl)cc(C(F)(F)F)cc3Cl)=NO2)n1C)c1cccnc1 (stereo not drawn) [Example I-1-34]
logP[a] [1, 7]: 2.66 | logP[n] [1, 8]: 2.75 | efficacy (aphids killed) (Myzus persicae [2]; [6]): 90% | efficacy (aphids killed) (Myzus persicae [3]; 4 ppm, oral, after 5 days): 100%

CN(C(=O)c1cnc(C2CC(c3ccc(C(F)(C(F)(F)F)C(F)(F)F)cc3)=NO2)n1C)c1cccnc1 (stereo not drawn) [Example I-1-35]
logP[a] [1, 7]: 3.01 | logP[n] [1, 8]: 3.08 | efficacy (aphids killed) (Myzus persicae [2]; [6]): 100% | efficacy (aphids killed) (Myzus persicae [3]; 4 ppm, oral, after 5 days): 90%

CC(C)C1CC(c2ncc(C(=O)N(C)c3cccnc3)n2C)=NO1 (stereo not drawn) [Example I-1-37]
logP[a] [1, 7]: 1.65 | logP[n] [1, 8]: 1.85

CN(C(=O)c1cnc(C2=NOC(C3CCCC3)C2)n1C)c1cccnc1 (stereo not drawn) [Example I-1-38]
logP[a] [1, 7]: 2.09 | logP[n] [1, 8]: 2.21

CN(C)C(=O)C1CC(c2ncc(C(=O)N(C)c3cccnc3)n2C)=NO1 (stereo not drawn) [Example I-1-39]
logP[a] [1, 7]: 0.78 | logP[n] [1, 8]: 1.12

CN(C(=O)c1cnc(C2=NOC(c3ccccc3)C2)n1C)c1cccnc1 (stereo not drawn) [Example I-1-40, N,1-Dimethyl-2-(5-phenyl-4,5-dihydro-1,2-oxazol-3-yl)-N-(pyridin-3-yl)-1H-imidazole-5-carboxamide]
chromatographic logP [1, 4]: 1.86 | chromatographic logP [1, 5]: 1.97 | pest or weed control at 500 g/ha (Myzus persicae [2]; [6]): 90% | pest or weed control at 4 ppm (Myzus persicae [3]; 4 ppm, oral, after 5 days): 90%

CN(C(=O)c1cnc(C2=NOC(c3ccc(C(F)(F)F)cc3)C2)n1C)c1cccnc1 (stereo not drawn) [Example I-1-41]
logP[a] [1, 7]: 2.49 | logP[n] [1, 8]: 2.60

CN(C(=O)c1cnc(C2=NOC(c3ccccn3)C2)n1C)c1cccnc1 (stereo not drawn) [Example I-1-42]
logP[a] [1, 7]: 1.09 | logP[n] [1, 8]: 1.46

CN(C(=O)c1cnc(C2=NOC(c3cccnc3)C2)n1C)c1cccnc1 (stereo not drawn) [Example I-1-43]
logP[a] [1, 7]: 0.56 | logP[n] [1, 8]: 1.35

CN(C(=O)c1cnc(C2=NOC(c3ccncc3)C2)n1C)c1cccnc1 (stereo not drawn) [Example I-1-44]
logP[a] [1, 7]: 0.45 | logP[n] [1, 8]: 1.34

CN(C(=O)c1cnc(C2=NCCN2)n1C)c1cccnc1 [Example I-1-45, N,1-Dimethyl-N-(pyridin-3-yl)-4′,5′-dihydro-1H,1′H-2,2′-biimidazole-5-carboxamide]
chromatographic logP [1, 5]: 0.54

CN1CCN=C1c1ncc(C(=O)N(C)c2cccnc2)n1C [Example I-1-46]
logP[n] [1, 8]: 0.74

CN(C(=O)c1cnc(C2=CC(=O)OC2)n1C)c1cccnc1 [Example I-1-47, N,1-Dimethyl-2-(5-oxo-2,5-dihydrofuran-3-yl)-N-(pyridin-3-yl)-1H-imidazole-5-carboxamide]
chromatographic logP [1, 4]: 0.46 | chromatographic logP [1, 5]: 0.72 | pest or weed control at 500 g/ha (Myzus persicae [2]; in Brassica rapa): 90% | pest or weed control at 4 ppm (Myzus persicae [3]; po): 100%

N#Cc1cccc(C=NO)c1 [IX-19, 3-(Hydroxyimino)methylbenzonitrile]
chromatographic logP ([1]; HPLC RP C18, acidic range pH 2.7, 0.1% formic acid/acetonitrile, read-out: logP[a]): 1.2

CN(C(=O)c1cnc(I)n1C)c1cccnc1 [VI-1-1, 2-Iodo-N,1-dimethyl-N-(pyridin-3-yl)-1H-imidazole-5-carboxamide]
chromatographic logP [1, 4]: 0.66 | chromatographic logP [1, 5]: 0.97

C=Cc1ncc(C(=O)N(C)c2cccnc2)n1C [VII-1-1, N,1-Dimethyl-N-(pyridin-3-yl)-2-vinyl-1H-imidazole-5-carboxamide]
chromatographic logP [1, 5]: 0.82

CN(C(=O)c1cnc(C=O)n1C)c1cccnc1 [XIII-1-1, 2-Formyl-N,1-dimethyl-N-(pyridin-3-yl)-1H-imidazole-5-carboxamide]
chromatographic logP [1, 4]: 0.43 | chromatographic logP [1, 5]: 0.6

CN(C(=O)c1cnc(C=NO)n1C)c1cccnc1 [XVIII-1-1, 2-[(Hydroxyimino)methyl]-N,1-dimethyl-N-(pyridin-3-yl)-1H-imidazole-5-carboxamide]
chromatographic logP [1, 5]: 0.51

CN(C(=O)c1cnc(C#N)n1C)c1cccnc1 [XXIII-1-1, 2-Cyano-N,1-dimethyl-N-(pyridin-3-yl)-1H-imidazole-5-carboxamide]
chromatographic logP [1, 4]: 0.63 | chromatographic logP [1, 5]: 0.85
